Our source for the MIC values is patent US4264597A, “Cephalosporin analogues and processes for the preparation thereof” (priority 1978, dated 1981).

Each structure is given as a SMILES string. In brackets after ≈: the same amount, converted by molar mass.

The test concerns T. asteroides. As to the kind of experiment: In vitro antimicrobial activity, two-fold agar-plate dilution method (MIC). It counts as cell-based. The following applies: overnight culture in Trypticase-soy broth (10^4-5 viable spores per ml) streaked on HI-agar, incubation at 37° C. for 20 hours. The procedure:
In vitro antibacterial activity was determined by the two-fold agar-plate dilution method as described below. One loopful of an overnight culture of each test strain in Trypticase-soy broth (10^4-5 viable spores per ml) was streaked on heart infusion sugar (HI-agar) containing graded concentrations of antibiotics, and the minimal inhibitory concentration (MIC) was expressed in terms of μg/ml after incubation at 37° C. for 20 hours.

As usually defined, the MIC is the lowest concentration that inhibits growth of the organism. The low end stands for inhibition by little substance, the high end for a need for much substance. Take `O=C(COc1ccccc1)N[C@@H]1C(=O)N2C(C(=O)OCc3ccccc3)=CC(=O)S[C@H]12` [(1)]: it took 100 µg/mL (≈ 228 µM) to inhibit growth (MIC).
In the case of `O=C(COc1ccccc1)N[C@@H]1C(=O)N2C(C(=O)OCc3ccccc3)=CC(=O)O[C@H]12` [(2)], the lowest concentration to inhibit growth (MIC) was 200 µg/mL (≈ 473 µM). This MIC lies about 2-fold higher than the previous one.
